Experimental data published in Sander's compilation of Henry's law constants (doi:10.1063/1.555654).

Experiment: Henry solubility constant Hcp at 298.15 K (mol/(m3 Pa))
Conditions: reference: Mackay and Shiu (1981)

Compound	Henry solubility constant Hcp
Clc1cc(Cl)c(Cl)c(Cl)c1 [1,2,3,5-tetrachlorobenzene]	0.0063
Clc1cccc(Cl)c1Cl [1,2,3-trichlorobenzene]	0.0079
Clc1ccc(Cl)cc1 [1,4-dichlorobenzene]	0.0042
Clc1cccc2ccccc12 [1-chloronaphthalene]	0.0028
Cc1cccc2ccccc12 [1-methylnaphthalene]	0.038
c1ccc2c(c1)Cc1ccccc1-2 [2,3-benzindene]	0.099
Clc1ccc2ccccc2c1 [2-chloronaphthalene]	0.031
c1cc2c3c(cccc3c1)CC2 [acenaphthene]	0.0064
c1ccc2cc3ccccc3cc2c1 [anthracene]	0.014
c1ccc(-c2ccccc2)cc1 [biphenyl]	0.033
Brc1ccccc1 [bromobenzene]	0.004
Clc1ccccc1 [chlorobenzene]	0.0032
c1ccc2c(c1)ccc1ccccc12 [phenanthrene]	0.27
